Here are results for 24 compounds from ChEMBL document CHEMBL6087403 (Bioorg Med Chem Lett, 2025).

As usually defined, the IC50 is the concentration that gives 50% inhibition.

Active and inactive are the calls of the source. The rule behind the calls is not given here.

The target in one assay is Alpha glucosidase (Homo sapiens, UniProt O43451+P10253+P14410+Q2M2H8). Kind of assay: Inhibition of alpha-glucosidase (unknown origin). The format is protein assay.
The nature of assay [1]: Antioxidant activity assessed as DPPH radical scavenging activity incubated for 1 hr by spectrophotometric analysis. The format is functional. On the technique in general: The DPPH test is a chemical assay of radical scavenging.

On to `CC1=C(C(=O)[C@H](C)c2ccccc2)C(c2ccccc2)NC(=S)N1` (some centres not stated), for which the half-inhibitory concentration (IC50) at Alpha glucosidase amounted to 76.2 µM; in assay [1], 69 µM. In the case of `CC1=C(C(=O)[C@H](C)c2ccccc2)C(c2ccc(C)cc2)NC(=S)N1` (some centres not stated), the IC50 against Alpha glucosidase worked out at 41.2 µM. The result in assay [1] was inactive. As to `CCOC(=O)C1=C(C)NC(SC)N(C)C1c1ccc(C)cc1` (configuration not stated), the IC50 was found to be 44.4 µM at Alpha glucosidase and 87.3 µM in assay [1].

With `CCOC(=O)C1=C(C)n2nnnc2N(C)C1c1cccc(O)c1.Cl.Cl` (configuration not stated), the values for the IC50 (on Alpha glucosidase; in assay [1]) were 45.6 µM and 49.2 µM, respectively. For the compound `CC1=C(C(=O)[C@H](C)c2ccccc2)C(c2ccccc2Cl)NC(=S)N1` (some centres not stated), the concentration for half-maximal inhibition (IC50) is 23.3 µM on Alpha glucosidase and 31.2 µM in assay [1].

Regarding `CCOC(=O)C1=C(C)n2nnnc2N(C)C1c1ccc(C)cc1.Cl.Cl` (configuration not stated), the IC50 was determined as 61.1 µM on Alpha glucosidase and 68.2 µM in assay [1]. Taken in the same sequence, the figures for `CCOC(=O)C1=C(C)NC(SC)N(C)C1c1cccc(OC)c1OC` (configuration not stated) were 35.9 µM and 38.8 µM.

Turning to `COC(=O)C1=C(C)NC(SC)N(C)C1c1ccccc1` (configuration not stated), the IC50 on Alpha glucosidase was determined as 84.2 µM; in assay [1] it was 69.5 µM.

As for `CC1=C(C(=O)[C@@H](C)c2ccccc2)C(c2ccccc2)NC(=S)N1` (some centres not stated), the IC50 against Alpha glucosidase is 61.1 µM; in assay [1] it was 67.8 µM. The compound `CC1=C(C(=O)[C@@H](C)c2ccccc2)C(c2ccc(C)cc2)NC(=S)N1` (some centres not stated) showed an IC50 against Alpha glucosidase of 47.3 µM. In addition, in assay [1], the outcome was inactive. For the compound `CCOC(=O)C1=C(C)NC(NN)N(C)C1c1cccc(O)c1.Cl.Cl` (configuration not stated), the IC50 came out at 62.7 µM on Alpha glucosidase and 79.3 µM in assay [1].

With `CCOC(=O)C1=C(C)NC(NN)N(C)C1c1ccccc1.Cl.Cl` (configuration not stated), the values for the IC50 (against Alpha glucosidase; in assay [1]) were 31.1 µM and 92.1 µM, respectively.

Regarding `CCOC(=O)C1=C(C)NC(SC)N(C)C1c1cccc(O)c1` (configuration not stated), the IC50 on Alpha glucosidase stood at 21.5 µM; in assay [1], 29.5 µM. Taken in the same sequence, the figures for `CCOC(=O)C1=C(C)NC(NN)N(C)C1c1ccc(C)cc1.Cl.Cl` (configuration not stated) were 71.1 µM and 85.1 µM. As to `CCOC(=O)C1=C(C)n2nnnc2N(C)C1c1ccccc1.Cl.Cl` (configuration not stated), the IC50 against Alpha glucosidase was determined as 39.4 µM; in assay [1], 33.2 µM. Taken in the same sequence, the figures for `CC1=C(C(=O)O)C(c2ccc(C)cc2)NC(=S)N1` (configuration not stated) were 39.2 µM and 90.8 µM.

Regarding `CC1=C(C(=O)O)C(c2ccccc2)NC(=S)N1` (configuration not stated), the IC50 amounted to 89.5 µM against Alpha glucosidase and 59.8 µM in assay [1]. For `CCOC(=O)C1=C(C)NC(SC)N(C)C1c1ccccc1` (configuration not stated), the IC50 against Alpha glucosidase was determined as 24.2 µM; in assay [1] it was 21.4 µM. The matching figures for `COC(=O)C1=C(C)n2nnnc2N(C)C1c1ccccc1.Cl.Cl` (configuration not stated): 65.1 µM and 55.1 µM.

With `CCOC(=O)C1=C(C)NC(NN)N(C)C1c1ccc([N+](=O)[O-])cc1.Cl.Cl` (configuration not stated), the IC50 against Alpha glucosidase was 72.4 µM; in assay [1] it was 66 µM. Take `CC1=C(C(=O)[C@@H](C)c2ccccc2)C(c2ccccc2Cl)NC(=S)N1` (some centres not stated): the IC50 is 18.9 µM on Alpha glucosidase and 29.8 µM in assay [1]. As for `COc1ccc(O)c(C(C)(C)C)c1`, in assay [1], the IC50 came out at 44.2 µM. As for `CC1=C(C(=O)O)C(c2ccccc2Cl)NC(=S)N1` (configuration not stated), the IC50 at Alpha glucosidase is 12.5 µM; in assay [1], 45.3 µM. The matching figures for `CCOC(=O)C1=C(C)NC(SC)N(C)C1c1ccc([N+](=O)[O-])cc1` (configuration not stated): 33.3 µM and 61.2 µM.
